Columns and labels:
PC3 = assay: Cell growth inhibition assay, PC3; assay type: cell-based; conditions: Homo sapiens, PC-3; PC3, prostate carcinoma; 72 h viability assay, CellTiterGlo; mean of 3 ± SEM; read-out: IC50 (inhibition of cellular proliferation)
Experimental: (§1) Cells were plated at a density of between 500 to 5000 cells per well for adherent cell lines depending on doubling time, and 15,000 cells per well for lymphoblastic leukemia cell lines, in a 96-well plate in 200 μl of growth media. Plates were incubated overnight at 37 °C before adding the inhibitors. Inhibitors were serially diluted from the stock solutions in complete medium and added to the cells. Incubation in the presence of inhibitors was continued for 72 days. Cell viability was assessed by the AlamarBlue (Invitrogen) or CellTiterBlue/Glo (Promega) method according to manufacturer’s instructions. The curve fits and IC50 values were generated in PRISM (GraphPad, San Diego, CA).

tubulin in SW480 cells = assay: Tubulin polymerization in cells (polymerized vs soluble, western blot); assay type: cell-based, human; conditions: 100 nM, overnight, vs control cells
Experimental: Cells incubated with control or with inhibitors were lysed in hypotonic buffer (1 mM MgCl2/2 mM EGTA/0.5% Nonidet P-40/20 mM Tris·HCl, pH 6.8 with the addition of complete protease inhibitor cocktail). The lysates were centrifuged at 14,000 rpm for 10 min at RT. Supernatants (containing soluble tubulin) and pellets (containing polymerized tubulin) were separated and each sample was brought to an equal volume with hypotonic buffer. Proteins were resolved by SDS/PAGE on 4–12% gels (Invitrogen, Carlsbad, CA), transferred to nitrocellulose and immunoblotted with an antibody against tubulin followed by fluorescent secondary antibody. Immunoreactive bands were detected using an Odyssey photometer (Li-Cor, Lincoln, NB).

[1] = tested on: MDA-MB-231 LNA DRE (docetaxel resistant breast cancer) xenograft; assay: Orthotopic MDA-MB-231 LNA-DRE xenograft; assay type: in vivo, Balb/c nude mice; conditions: docetaxel 10 mg/kg weekly i.v., WEHI-7326 30 mg/kg biweekly i.v.
Experimental: LoVo (4 × 10^6), PC3 (3 × 10^6) or MDA-MB-231 LNA DRE (10^6) cells were collected by trypsination and injected with 50 μl 1:1 PBS:Matrigel (v/v) subcutaneously on the right flank of 18 female (LoVo), 40 male (PC3) or into 4th mammary fat pad of 40 female (MDA231) Balb/c nude mice. Tumor growth was monitored and average tumor size at commencement of dosing was 100 mm^3. Mice were randomized into 3 arms of each 5 (LoVo), 10 (PC3) or 12 (MDA23) mice respectively and treatment with vehicle (saline), WEHI-7326 (biweekly) or docetaxel (weekly) was administered via tail vein injection. Tumor volumes were measured at least twice weekly with calipers and the experiments were terminated when tumors in the control group started exceeding 1500 mm^3. For LoVo, both vehicle and 25 mg/kg WEHI-7326 groups were harvested 24 h, but 20 mg/kg WEHI-7326 group harvested 1 h post final dose. For PC3, docetaxel group was not harvested in an attempt to grow out resistant tumors.

134197 HGSOC PDX = assay: HGSOC PDX model 134197; assay type: in vivo, NSG mice; conditions: 134197 cisplatin-resistant PDX; 20 mg/kg i.v. biweekly, 6 weeks
Experimental: Two to three mm ovarian tumor fragments were subcutaneously engrafted in the left flank of NSG mice and monitored by physical palpation for tumor growth and engraftment. Engrafted tumors were measured twice a week using digital Vernier calipers and maximum tumor diameter + perpendicular tumor length were digitally recorded into the Study Director software (v 3.0/4.0 StudyLog). Tumor volume was calculated automatically (tumor volume (mm^3) = 0.5236 x [larger diameter (mm) x smaller diameter (mm)^2]). Mice were randomized to treatment once their tumor volume reach 180–300 mm^3 and tumor measurements were performed twice a week up to 120 days or when the tumor volume reaches 700 mm^3.
Time to progressive disease (PD): Defined as the time (in days) from beginning of treatment to an increase in average tumor volume of >20% from the nadir (taken as the smallest average tumor volume recorded since treatment started or 200 mm^3 if nadir was <200 mm^3 as lesions smaller than this are difficult to measure with accuracy). Median time to harvest (TTH): Defined as the time (in days) from the beginning of treatment to day of harvest at 700 mm^3 and the median TTH was calculated and plotted using Kaplan-Meier curves. Based on ref. [27]. […]

H1437 = assay: Cell growth inhibition assay, H1437; assay type: cell-based; conditions: Homo sapiens, NCI-H1437; H1437, non-small cell lung carcinoma; 72 h viability assay, CellTiterGlo; mean of 3 ± SEM; read-out: IC50 (inhibition of cellular proliferation)
Experimental: as §1, with “Incubation in the presence of inhibitors was continued for 72 days.” left out

[2] = tested on: MDA-MB-231, H1437, LoVo and PC3 cells; assay: Anti-proliferative activity in a panel of cancer cell lines (CellTiterGlo, 72 h); assay type: cell-based, human
Experimental: as §1

LIM1899 = assay: Cell growth inhibition assay, LIM1899; assay type: cell-based; conditions: Homo sapiens; LIM1899, colon carcinoma; 72 h viability assay, CellTiterGlo; mean of 3 ± SEM; read-out: IC50 (inhibition of cellular proliferation)
Experimental: as §1, with “Incubation in the presence of inhibitors was continued for 72 days.” left out

COc1ccc(CNc2nc(NCc3ccc(CN)cc3)nc(NN3CC(=O)NC3=O)n2)cc1 [WEHI-7326]
IC50 (PC3): 0.0489 ± 0.0111 µM
Change in ratio of polymerized to soluble tubulin (tubulin in SW480 cells): no significant change
Tumor growth inhibition (TGI) [1]: 105%
Median time to harvest (TTH) (134197 HGSOC PDX): 92 days
Time to progressive disease (PD) (134197 HGSOC PDX): 35 days
IC50 (H1437): 0.0297 ± 0.0108 µM
Anti-proliferative activity relative to myoseverin B [2]: over 10 fold
IC50 (LIM1899): 0.0313 ± 0.0026 µM

— publication PMC7955127, “Preclinical small molecule WEHI-7326 overcomes drug resistance and elicits response in patient-derived xenograft models of human treatment-refractory tumors” (Cell Death & Disease, 2021)
